Where two headings read alike, the source gives them in different places.
How the values were obtained:
Test in all cases: KINOMEscan
Assay type in all cases: binding
PCTK2 = PCTK2 (Homo sapiens (Human), UniProt Q00537); settings: PCTK2, 10000 nM; read-out: Percent Control
VEGFR2 = VEGFR2 (Homo sapiens (Human), UniProt P35968); settings: VEGFR2, 10000 nM; read-out: Percent Control
PCTK1 = PCTK1 (Homo sapiens (Human), UniProt Q00536); settings: PCTK1, 10000 nM; read-out: Percent Control
LRRK2(G2019S) = LRRK2(G2019S) (Homo sapiens (Human), UniProt Q5S007, G2019S); settings: 10000 nM, read-out: Percent Control
PIK3C2G = PIK3C2G (Homo sapiens (Human), UniProt O75747); settings: 10000 nM, read-out: Percent Control
MELK = MELK (Homo sapiens (Human), UniProt Q14680); settings: 10000 nM, read-out: Percent Control
RET = RET (Homo sapiens (Human), UniProt P07949); settings: 10000 nM, read-out: Percent Control
MLK2 = MLK2 (Homo sapiens (Human), UniProt Q02779); settings: MLK2, 10000 nM; read-out: Percent Control
PAK7 = PAK7 (Homo sapiens (Human), UniProt Q9P286); settings: PAK7, 10000 nM; read-out: Percent Control
Sequence of PAK7 (Q9P286 whole entry): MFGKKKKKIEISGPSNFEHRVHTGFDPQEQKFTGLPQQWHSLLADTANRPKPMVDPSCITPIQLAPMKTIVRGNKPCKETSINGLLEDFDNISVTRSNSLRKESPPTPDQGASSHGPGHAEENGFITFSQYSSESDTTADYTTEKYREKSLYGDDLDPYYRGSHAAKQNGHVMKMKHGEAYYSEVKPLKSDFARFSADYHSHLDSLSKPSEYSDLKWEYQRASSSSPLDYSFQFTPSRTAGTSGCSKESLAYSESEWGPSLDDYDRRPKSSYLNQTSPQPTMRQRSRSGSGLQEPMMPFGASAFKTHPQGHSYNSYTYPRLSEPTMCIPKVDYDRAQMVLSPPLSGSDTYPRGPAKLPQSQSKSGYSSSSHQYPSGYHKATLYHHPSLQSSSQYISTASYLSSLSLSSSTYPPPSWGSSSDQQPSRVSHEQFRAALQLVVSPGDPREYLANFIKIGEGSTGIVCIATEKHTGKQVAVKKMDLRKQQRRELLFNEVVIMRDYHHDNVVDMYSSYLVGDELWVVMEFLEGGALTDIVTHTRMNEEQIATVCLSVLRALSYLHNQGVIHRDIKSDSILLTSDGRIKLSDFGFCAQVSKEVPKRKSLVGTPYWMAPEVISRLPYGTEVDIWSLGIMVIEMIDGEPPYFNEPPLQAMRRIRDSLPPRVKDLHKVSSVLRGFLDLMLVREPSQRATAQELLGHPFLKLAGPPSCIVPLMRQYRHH

SRPK1 = SRPK1 (Homo sapiens (Human), UniProt Q96SB4); settings: SRPK1, 10000 nM; read-out: Percent Control
DLK = DLK (Homo sapiens (Human), UniProt Q12852); settings: 10000 nM, read-out: Percent Control
TYRO3 = TYRO3 (Homo sapiens (Human), UniProt Q06418); settings: TYRO3, 10000 nM; read-out: Percent Control
DYRK1A = DYRK1A (Homo sapiens (Human), UniProt Q13627); settings: 10000 nM, read-out: Percent Control
DAPK1 = DAPK1 (Homo sapiens (Human), UniProt P53355); settings: DAPK1, 10000 nM; read-out: Percent Control
ASK1 = ASK1 (Homo sapiens (Human), UniProt Q99683); settings: ASK1, 10000 nM; read-out: Percent Control
STK16 = STK16 (Homo sapiens (Human), UniProt O75716); settings: STK16, 10000 nM; read-out: Percent Control
PKAC-beta = PKAC-beta (Homo sapiens (Human), UniProt P22694); settings: 10000 nM, read-out: Percent Control
[1] = molecular target: ABL1(Q252H)-nonphosphorylated (Homo sapiens (Human), UniProt P00519, Q252H); settings: 10000 nM, read-out: Percent Control
RAF1 = RAF1 (Homo sapiens (Human), UniProt P04049); settings: RAF1, 10000 nM; read-out: Percent Control
CDK9 = CDK9 (Homo sapiens (Human), UniProt P50750); settings: CDK9, 10000 nM; read-out: Percent Control
ERK8 = ERK8 (Homo sapiens (Human), UniProt Q8TD08); settings: ERK8, 10000 nM; read-out: Percent Control
PIK3CA(M1043I) = PIK3CA(M1043I) (Homo sapiens (Human), UniProt P42336, M1043I); settings: 10000 nM, read-out: Percent Control
TESK1 = TESK1 (Homo sapiens (Human), UniProt Q15569); settings: TESK1, 10000 nM; read-out: Percent Control
PIP5K2B = PIP5K2B (Homo sapiens (Human), UniProt P78356); settings: 10000 nM, read-out: Percent Control
Sequence of PIP5K2B (P78356 whole entry): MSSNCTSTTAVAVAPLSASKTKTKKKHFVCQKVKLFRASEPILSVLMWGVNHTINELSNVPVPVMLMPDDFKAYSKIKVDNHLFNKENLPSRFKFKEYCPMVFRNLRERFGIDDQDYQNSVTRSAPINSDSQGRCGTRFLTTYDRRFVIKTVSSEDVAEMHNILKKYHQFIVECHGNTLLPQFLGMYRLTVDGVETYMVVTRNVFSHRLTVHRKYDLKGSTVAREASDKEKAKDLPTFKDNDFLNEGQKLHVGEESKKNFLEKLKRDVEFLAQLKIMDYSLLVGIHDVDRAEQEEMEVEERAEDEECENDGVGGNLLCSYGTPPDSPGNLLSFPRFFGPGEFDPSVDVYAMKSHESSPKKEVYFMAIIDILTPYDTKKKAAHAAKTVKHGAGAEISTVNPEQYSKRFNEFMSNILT

NIM1 = NIM1 (Homo sapiens (Human), UniProt Q8IY84); settings: NIM1, 10000 nM; read-out: Percent Control
CDK4 = CDK4 (Homo sapiens (Human), UniProt P11802); settings: CDK4, 10000 nM; read-out: Percent Control
Sequence of CDK4 (P11802 whole entry): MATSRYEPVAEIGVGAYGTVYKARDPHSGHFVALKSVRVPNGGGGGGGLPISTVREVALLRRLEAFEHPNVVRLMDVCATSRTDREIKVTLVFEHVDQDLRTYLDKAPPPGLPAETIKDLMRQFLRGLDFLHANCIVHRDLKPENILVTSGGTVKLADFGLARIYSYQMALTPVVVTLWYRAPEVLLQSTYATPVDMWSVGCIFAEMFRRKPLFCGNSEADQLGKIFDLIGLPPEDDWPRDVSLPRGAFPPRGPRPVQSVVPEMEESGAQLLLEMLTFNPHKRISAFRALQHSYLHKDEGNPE

SgK110 = SgK110 (Homo sapiens (Human), UniProt P0C264); settings: SgK110, 10000 nM; read-out: Percent Control
RIPK5 = RIPK5 (Homo sapiens (Human), UniProt Q6XUX3); settings: RIPK5, 10000 nM; read-out: Percent Control
Sequence of RIPK5 (Q6XUX3 whole entry): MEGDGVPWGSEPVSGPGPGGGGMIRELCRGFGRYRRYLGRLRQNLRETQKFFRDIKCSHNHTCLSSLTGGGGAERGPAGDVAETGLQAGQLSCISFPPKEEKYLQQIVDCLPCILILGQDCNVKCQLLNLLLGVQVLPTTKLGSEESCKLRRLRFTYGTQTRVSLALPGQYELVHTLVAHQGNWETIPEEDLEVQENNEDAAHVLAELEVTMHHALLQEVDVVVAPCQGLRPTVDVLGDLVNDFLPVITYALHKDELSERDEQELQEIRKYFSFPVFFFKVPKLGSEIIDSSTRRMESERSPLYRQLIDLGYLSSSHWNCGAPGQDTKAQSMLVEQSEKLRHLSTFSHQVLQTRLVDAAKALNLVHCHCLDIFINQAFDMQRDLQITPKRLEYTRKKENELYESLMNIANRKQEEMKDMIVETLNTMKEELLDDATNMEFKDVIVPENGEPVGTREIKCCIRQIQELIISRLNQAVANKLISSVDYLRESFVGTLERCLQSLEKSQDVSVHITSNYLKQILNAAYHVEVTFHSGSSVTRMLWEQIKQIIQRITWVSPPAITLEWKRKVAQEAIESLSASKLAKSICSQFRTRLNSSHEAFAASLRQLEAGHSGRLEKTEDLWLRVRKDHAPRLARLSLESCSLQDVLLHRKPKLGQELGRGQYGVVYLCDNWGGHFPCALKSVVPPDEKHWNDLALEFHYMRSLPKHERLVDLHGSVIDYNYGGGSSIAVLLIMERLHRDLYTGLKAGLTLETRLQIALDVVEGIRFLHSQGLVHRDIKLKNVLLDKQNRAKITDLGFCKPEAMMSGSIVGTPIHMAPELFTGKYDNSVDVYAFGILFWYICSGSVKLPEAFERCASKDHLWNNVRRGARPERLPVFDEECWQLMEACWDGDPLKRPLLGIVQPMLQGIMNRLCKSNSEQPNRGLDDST

IGF1R = IGF1R (Homo sapiens (Human), UniProt P08069); settings: 10000 nM, read-out: Percent Control
Sequence of IGF1R (P08069 31-1367): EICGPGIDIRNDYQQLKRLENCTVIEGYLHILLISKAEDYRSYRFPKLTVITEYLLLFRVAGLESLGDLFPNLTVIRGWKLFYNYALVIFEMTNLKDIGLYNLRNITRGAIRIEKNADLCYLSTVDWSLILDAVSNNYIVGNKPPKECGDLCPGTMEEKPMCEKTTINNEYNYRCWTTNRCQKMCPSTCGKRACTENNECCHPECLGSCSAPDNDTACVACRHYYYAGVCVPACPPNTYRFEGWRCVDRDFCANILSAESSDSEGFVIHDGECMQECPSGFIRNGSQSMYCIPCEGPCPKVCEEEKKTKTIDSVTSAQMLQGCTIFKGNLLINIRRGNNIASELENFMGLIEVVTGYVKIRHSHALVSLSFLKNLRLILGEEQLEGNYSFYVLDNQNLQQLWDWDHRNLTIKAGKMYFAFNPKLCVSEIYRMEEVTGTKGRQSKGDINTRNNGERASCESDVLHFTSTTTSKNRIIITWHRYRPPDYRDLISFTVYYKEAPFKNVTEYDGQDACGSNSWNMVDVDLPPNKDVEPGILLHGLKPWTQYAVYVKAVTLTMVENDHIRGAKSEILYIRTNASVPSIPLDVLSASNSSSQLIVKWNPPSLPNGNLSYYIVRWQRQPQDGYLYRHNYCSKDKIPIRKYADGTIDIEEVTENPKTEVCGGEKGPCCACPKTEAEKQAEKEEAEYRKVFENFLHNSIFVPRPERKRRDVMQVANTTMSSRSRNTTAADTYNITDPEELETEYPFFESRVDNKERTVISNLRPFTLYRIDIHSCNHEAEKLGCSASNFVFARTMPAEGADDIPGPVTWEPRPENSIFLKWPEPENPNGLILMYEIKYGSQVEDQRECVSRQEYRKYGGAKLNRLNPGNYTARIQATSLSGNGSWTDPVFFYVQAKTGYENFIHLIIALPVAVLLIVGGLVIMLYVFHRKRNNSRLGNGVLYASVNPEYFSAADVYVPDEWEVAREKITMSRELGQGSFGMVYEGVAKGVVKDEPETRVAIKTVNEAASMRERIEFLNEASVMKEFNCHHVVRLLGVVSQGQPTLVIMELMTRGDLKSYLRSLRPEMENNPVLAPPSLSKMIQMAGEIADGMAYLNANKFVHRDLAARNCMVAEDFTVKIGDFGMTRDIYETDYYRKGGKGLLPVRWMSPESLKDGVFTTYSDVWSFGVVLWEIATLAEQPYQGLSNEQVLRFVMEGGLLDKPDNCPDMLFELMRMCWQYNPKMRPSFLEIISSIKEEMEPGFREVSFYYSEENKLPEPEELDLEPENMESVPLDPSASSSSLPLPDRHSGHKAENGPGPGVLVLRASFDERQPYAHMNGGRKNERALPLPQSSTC

YANK1 = YANK1 (Homo sapiens (Human), UniProt Q8WU08); settings: YANK1, 10000 nM; read-out: Percent Control
YES = YES (Homo sapiens (Human), UniProt P07947); settings: 10000 nM, read-out: Percent Control
TEC = TEC (Homo sapiens (Human), UniProt P42680); settings: 10000 nM, read-out: Percent Control
EGFR(T790M) = EGFR(T790M) (Homo sapiens (Human), UniProt P00533, T790M); settings: 10000 nM, read-out: Percent Control
Sequence of EGFR(T790M) (P00533 25-1210 T790M): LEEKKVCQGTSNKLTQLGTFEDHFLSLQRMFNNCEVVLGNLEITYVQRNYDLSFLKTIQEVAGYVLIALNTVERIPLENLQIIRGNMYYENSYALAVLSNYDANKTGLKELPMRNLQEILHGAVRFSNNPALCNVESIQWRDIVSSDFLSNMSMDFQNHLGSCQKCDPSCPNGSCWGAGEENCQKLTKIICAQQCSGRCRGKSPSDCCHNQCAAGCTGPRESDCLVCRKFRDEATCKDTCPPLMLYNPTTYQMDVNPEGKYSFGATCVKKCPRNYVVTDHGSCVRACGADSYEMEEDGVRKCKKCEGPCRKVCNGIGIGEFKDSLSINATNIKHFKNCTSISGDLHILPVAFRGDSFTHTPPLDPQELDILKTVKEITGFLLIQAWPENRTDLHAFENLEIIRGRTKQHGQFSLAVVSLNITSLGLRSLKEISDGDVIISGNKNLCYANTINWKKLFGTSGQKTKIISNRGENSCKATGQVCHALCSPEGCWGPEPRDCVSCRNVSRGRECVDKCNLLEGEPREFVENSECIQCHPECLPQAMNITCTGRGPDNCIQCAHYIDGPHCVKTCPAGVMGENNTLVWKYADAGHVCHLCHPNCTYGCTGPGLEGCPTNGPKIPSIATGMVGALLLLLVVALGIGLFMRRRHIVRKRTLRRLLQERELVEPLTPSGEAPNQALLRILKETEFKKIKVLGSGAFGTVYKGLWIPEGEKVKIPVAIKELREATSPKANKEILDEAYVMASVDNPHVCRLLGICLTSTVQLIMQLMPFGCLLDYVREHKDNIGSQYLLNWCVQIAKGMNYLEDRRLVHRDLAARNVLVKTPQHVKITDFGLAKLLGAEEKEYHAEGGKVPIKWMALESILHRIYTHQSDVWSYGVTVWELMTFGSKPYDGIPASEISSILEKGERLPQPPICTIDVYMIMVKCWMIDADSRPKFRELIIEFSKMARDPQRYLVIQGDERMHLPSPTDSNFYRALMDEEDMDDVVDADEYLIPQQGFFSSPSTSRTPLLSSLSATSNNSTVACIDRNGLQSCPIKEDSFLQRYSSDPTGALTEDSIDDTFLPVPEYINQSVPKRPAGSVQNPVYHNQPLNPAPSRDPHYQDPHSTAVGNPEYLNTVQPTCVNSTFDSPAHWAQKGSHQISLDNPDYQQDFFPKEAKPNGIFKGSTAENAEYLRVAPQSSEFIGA

WNK2 = WNK2 (Homo sapiens (Human), UniProt Q9Y3S1); settings: WNK2, 10000 nM; read-out: Percent Control

Structure (SMILES) | remaining binding at 10 µM (PCTK2) [%] | remaining binding at 10 µM (VEGFR2) [%] | remaining binding at 10 µM (PCTK1) [%] | remaining binding at 10 µM (LRRK2(G2019S)) [%] | remaining binding at 10 µM (PIK3C2G) [%] | remaining binding at 10 µM (MELK) [%] | remaining binding at 10 µM (RET) [%] | remaining binding at 10 µM (MLK2) [%] | remaining binding at 10 µM (PAK7) [%] | remaining binding at 10 µM (SRPK1) [%] | remaining binding at 10 µM (DLK) [%] | remaining binding at 10 µM (TYRO3) [%] | remaining binding at 10 µM (DYRK1A) [%] | remaining binding at 10 µM (DAPK1) [%] | remaining binding at 10 µM (ASK1) [%] | remaining binding at 10 µM (STK16) [%] | remaining binding at 10 µM (PKAC-beta) [%] | remaining binding at 10 µM [1] [%] | remaining binding at 10 µM (RAF1) [%] | remaining binding at 10 µM (CDK9) [%] | further results
COc1cc(N2CCC(N3CCN(C)CC3)CC2)ccc1Nc1ncc2c(n1)N(C)c1sc(C)nc1C(=O)N2 [Compound 3, 6-((2-methoxy-4-(4-(4-methylpiperazin-1-yl)piperidin-1-yl)phenyl)amino)-2,4-dimethyl-4,9-dihydro-10H-pyrimido[5,4-b]thiazolo[5,4-e][1,4]diazepin-10-one] | 76 | 100 | 100 | 100 | 69 | 99 | 99 | 96 | 97 | 100 | 90 | 92 | 100 | 72 | 74 | 81 | 82 | 7.8 | 85 | 74 | remaining binding at 10 µM (ERK8): 86%; remaining binding at 10 µM (PIK3CA(M1043I); PIK3CA(M1043I)): 87%; remaining binding at 10 µM (TESK1): 81%; remaining binding at 10 µM (PIP5K2B): 76%; remaining binding at 10 µM (NIM1): 100%; remaining binding at 10 µM (CDK4): 100%; remaining binding at 10 µM (SgK110): 86%; remaining binding at 10 µM (RIPK5): 100%; remaining binding at 10 µM (IGF1R): 86%; remaining binding at 10 µM (YANK1): 77%; remaining binding at 10 µM (YES): 72%; remaining binding at 10 µM (TEC): 69%; remaining binding at 10 µM (EGFR(T790M)): 100%; remaining binding at 10 µM (WNK2): 74%
COc1cc(N2CCC(N3CCN(C)CC3)CC2)ccc1Nc1ncc2c(n1)N(C)c1sc(C)nc1C(=O)N2C [Compound 5, 6-((2-methoxy-4-(4-(4-methylpiperazin-1-yl)piperidin-1-yl)phenyl)amino)-2,4,9-trimethyl-4,9-dihydro-10H-pyrimido[5,4-b]thiazolo[5,4-e][1,4]diazepin-10-one] | 100 | 95 | 100 | 21 | 100 | 88 | 100 | 76 | 88 | 100 | 86 | 88 | 87 | 84 | 88 | 100 | 100 | 93 | 95 | 98 | remaining binding at 10 µM (ERK8): 100%; remaining binding at 10 µM (PIK3CA(M1043I); PIK3CA(M1043l)): 100%; remaining binding at 10 µM (TESK1): 100%; remaining binding at 10 µM (PIP5K2B): 39%; remaining binding at 10 µM (NIM1): 100%; remaining binding at 10 µM (CDK4): 100%; remaining binding at 10 µM (SgK110): 92%; remaining binding at 10 µM (RIPK5): 60%; remaining binding at 10 µM (IGF1R): 40%; remaining binding at 10 µM (YANK1): 100%; remaining binding at 10 µM (YES): 97%; remaining binding at 10 µM (TEC): 100%; remaining binding at 10 µM (EGFR(T790M)): 93%; remaining binding at 10 µM (WNK2): 100%
